Literature values as cited in patent publication US20110142766A1, “Effervescent Multi-Vitamin Formulation and Methods of Use Thereof” (priority 2009, published 2011).

Tests used:
[1] = test system: age-related macular degeneration
vision loss = details: group treated with zinc compared with a group treated with a placebo

In the case of `[Zn]` [zinc], the “reduction of risk of (central) vision loss” value ([1]; people at high risk for developing advanced AMD) is given as “about 11%”, the “reduction of risk of developing advanced stages of AMD” value ([1]; people at high risk for developing advanced AMD (intermediate AMD, or advanced AMD in one eye only)) is given as “about 21%” and the “reduction in vision loss” value (vision loss) is given as “statistically significant reduction in vision loss”.
